Laboratory results reported in patent US5591758A, “Organic nitrates, processes for their preparation and their use in the treatment of cardiovascular diseases” (Laboratoires Hoechst, SA, priority 1991, dated 1997).
Counter-ions that a name gives are not always drawn.

Columns and labels:
thoracic aorta = test: Vasorelaxant effect on isolated vessels (rat thoracic aorta rings without endothelium, precontracted with noradrenalin); set-up: species or system Wistar rats; conditions: for Emax: Rattus norvegicus, maximum inhibition of noradrenalin effect, 10^-8 to 10^-4 M substance, read-out: Maximum Relaxation; for IC50: rat aorta, 10^-7 M noradrenalin contraction
Protocol: Vasorelaxant effect of the compounds according to the invention on isolated vessels.
Adult Wistar rats weighing between 250 and 350 g are anaesthetised by intraperitoneal injection of sodium pentobarbital (30 mg/kg). The thoracic aorta is rapidly removed and placed in a refrigerated and oxygenated solution of bicarbonate buffer of the Krebs-Ringer type (composition [mM]: NaCl, 118; KCl, 4.7; CaCl2, 2.5; MgSO4, 1.2; KH2 PO4, 1.2; NaHCO3, 25.0; disodium calcium salt of EDTA, 0.026; glucose 11.1). The aorta is dissected with the aim of removing the connective tissue and then cut into 6 rings (length 5-10 mm). The endothelium is removed by moderate abrasion of the intimal surface of the aortic segments with the aid of a pair of tweezers. These segments are then placed between two hooks in an isolated organ cell filled with 25 ml of bicarbonate buffer (pH 7.4), thermostat-controlled at 37° C. and oxygenated with the aid of a 95% O2 /5% CO2 mixture (pH 7.4). One of the hooks is fixed to a fixed point, while the second is connected to a transducer with the aim of measuring the variations in isometric voltage (expressed in grams). After an equilibration period of 30 min., the segments are progressively withdrawn so as to attain the level of base voltage for which the contractor response to noradrenalin (10^-7 M) is maximum (optimum voltage; average 2 g). The absence of endothelium is verified by addition of a single concentration of acetylcholine (10^-6 M), after precontraction of the vessels by noradrenalin (10^-7 M). The integrity of the vascular smooth muscle is also verified by adding a single concentration of a vasodilator whose response is independent of the presence of the endothelium, SIN-1 (10^-5 M). After this initial procedure, the aortas are washed, equilibrated for a period of 30 min and then recontracted (10^-7 M noradrenalin). The relaxant effect of the substance to be tested is then evaluated by adding increasing concentrations of this substance (from 10^-8 to 10^-4 M). The maximum inhibition of the concentration caused by noradrenalin (expressed as a percentage) is then calculated ("maximum relaxation"). When this maximum relaxation is greater than 50%, the concentration of substance tested producing a 50% inhibition of the maximum contraction (IC50) is calculated. Table V below collates the IC50 and the maximum relaxation percentages for the various compounds tested.

anesthetised dogs = test: Haemodynamic effects on anesthetised dogs; type: in vivo, dogs (labrador/harrier cross)
Protocol: Haemodynamic effects of the compounds according to the invention on anesthetised pigs or dogs
The dogs, weighing between 16 and 26 kg, are the progeny of a labrador/harrier cross.
In the case of dogs the anesthesia is induced by sodium pentobarbitol (45 mg/jg i.v.) and maintained with an i.v. perfusion (flow rate of 8 mg/kg/h).
The pigs or dogs are placed under artificial respiration in ambient air. Analysis of the blood gases (pO2, pCO2) is carried out at regular intervals and oxygen can be supplied via the respirator, if necessary.
The haemodynamic parameters recorded include the left ventricular pressure (LVP; Millar PC350 Tip catheter inserted via the carotid artery), systemic blood pressure (BPs, BPd; full catheter in a femoral artery), the end pressure of the left ventricular diastole (LVEDP), the ventricular contractility (LVPdp/dtmax) and the heart rate (HR).
Following an equilibration period of the order of 45 minutes, the compounds studied are administered intraduodenally (i.d.) or intraveinously (i.v.) to several animals (1 to 4). The haemodynamic variables are recorded continuously for 1 to 3 hours, as a function of the period of action of the compound.
The effects of the compounds studied are shown as the absolute difference with respect to the base value (bv) measured before administration of the compounds and are shown in Table VII (a,b,c).
An antianginal activity is estimated by a fall in the BPs and the LVEDP (fall in venous return).

| Compound | Emax (thoracic aorta) [%] | IC50 (thoracic aorta) [µM] | BPs (min), period of action (anesthetised dogs; dogs, 3 mg/kg i.d.) [min] | BPs, difference to base value (anesthetised dogs; dogs, 3 mg/kg i.d.) [mmHg] | LVEDP (min), period of action (anesthetised dogs; dogs, 3 mg/kg i.d.) [min] | LVEDP, difference to base value (anesthetised dogs; dogs, 3 mg/kg i.d.) | further results |
| --- | --- | --- | --- | --- | --- | --- | --- |
| CC(=O)NCSC[C@H](N)C(=O)N[C@H]1CO[C@H]2[C@@H]1OC[C@H]2O[N+](=O)[O-] [Compound 42, S-[(Acetylamino)methyl]-L-cysteine amide of 2-amino-2-deoxy-5-O-nitro-1,4:3,6-dianhydro-D-glucitol monohydrochloride] | 92 | 33 | – | – | – | – | BPs (min), period of action (anesthetised dogs; dogs, 10 mg/kg i.v.): > 90 min; BPs, difference to base value (anesthetised dogs; dogs, 10 mg/kg i.v.): -10 mmHg; LVEDP (min), period of action (anesthetised dogs; dogs, 10 mg/kg i.v.): 0 min; LVEDP, difference to base value (anesthetised dogs; dogs, 10 mg/kg i.v.): 0,0 mmHg |
| CSCC[C@H](NC(=O)OC(C)(C)C)C(=O)N[C@H]1CO[C@H]2[C@@H]1OC[C@H]2O[N+](=O)[O-] [Compound 43, N-[(t-Butoxy)carbonyl]-L-methionine amide of 2-amino-2-deoxy-5-O-nitro-1,4:3,6-dianhydro-D-glucitol] | 80 | 32 | – | – | – | – | BPs (min), period of action (anesthetised dogs; dogs, 10 mg/kg i.v.): 90 min; BPs, difference to base value (anesthetised dogs; dogs, 10 mg/kg i.v.): -20 mmHg; LVEDP (min), period of action (anesthetised dogs; dogs, 10 mg/kg i.v.): 60 min; LVEDP, difference to base value (anesthetised dogs; dogs, 10 mg/kg i.v.): -1,0 mmHg |
| O=C(CNC(=O)[C@@H]1CCCN1)N[C@H]1CO[C@H]2[C@@H]1OC[C@@H]2O[N+](=O)[O-] [Compound 49, 5-[[2-[[((2S)-2-pyrrolidinyl)carbonyl]amino]-1-oxoethyl]amino]-5-deoxy-2-O-nitro-1,4:3,6-dianhydro-L-iditol monohydrochloride] | 100 | 38 | – | – | – | – | BPs (min), period of action (anesthetised dogs; dogs, 1,1 mg/kg i.d.): > 240 min; BPs, difference to base value (anesthetised dogs; dogs, 1,1 mg/kg i.d.): -32 mmHg |
| CC(C)(C)OC(=O)N1CSC[C@H]1C(=O)NCC(=O)N[C@H]1CO[C@H]2[C@@H]1OC[C@@H]2O[N+](=O)[O-] [Compound 60] | 53 | 87 | > 60 | -15 | 0 | 0,0 mmHg | – |
| C[C@H](NC(=O)[C@@H]1CSCN1C(=O)OC(C)(C)C)C(=O)N[C@H]1CO[C@H]2[C@@H]1OC[C@@H]2O[N+](=O)[O-] [Compound 61, 5-[[2-[[(3-t-butoxycarbonyl-4-n-thiazolidinyl)carbonyl]amino]-1-((2S)-2-methyl)-oxoethyl]amino]-5-deoxy-2-O-nitro-1,4:3,6-dianhydro-L-iditol] | 100 | 32 | > 180 | -25 | > 180 | -1,5 mmHg | – |
| C[C@H](NC(=O)[C@@H]1CSCN1)C(=O)N[C@H]1CO[C@H]2[C@@H]1OC[C@@H]2O[N+](=O)[O-] [Compound 62, 5-[[2-[[(4-L-thiazolidinyl)carbonyl]amino]-1-((2S)-2-methyl)-oxoethyl]amino]-5-deoxy-2-O-nitro-1,4:3,6-dianhydro-L-iditol monohydrochloride] | 72 | 55 | > 30 | -35 | – | – | – |
| CC(C)[C@H](NC(=O)[C@@H]1CSCN1C(=O)OC(C)(C)C)C(=O)N[C@H]1CO[C@H]2[C@@H]1OC[C@@H]2O[N+](=O)[O-] [Compound 63, 5-[[2-[[(3-t-butoxycarbonyl-4-L-thiazolidinyl)carbonyl]amino]-1-((2S)-2-isopropyl)-oxoethyl]amino]-5-deoxy-2-O-nitro-1,4:3,6-dianhydro-L-iditol] | 70 | 70 | – | – | – | – | BPs (min), period of action (anesthetised dogs; dogs, 3 mg/kg i.v.): > 60 min; BPs, difference to base value (anesthetised dogs; dogs, 3 mg/kg i.v.): -20 mmHg; LVEDP (min), period of action (anesthetised dogs; dogs, 3 mg/kg i.v.): 60 min; LVEDP, difference to base value (anesthetised dogs; dogs, 3 mg/kg i.v.): -1,0 mmHg |
| CC(C)[C@H](NC(=O)[C@@H]1CSCN1)C(=O)N[C@H]1CO[C@H]2[C@@H]1OC[C@@H]2O[N+](=O)[O-] [Compound 64, 5-[[2-[[(4-L-thiazolidinyl)carbonyl]amino]-1-((2S)-2-isopropyl)-oxoethyl]amino]-5-deoxy-2-O-nitro-1,4:3,6-dianhydro-L-iditol monohydrochloride] | 84 | 51 | > 180 | -25 | 150 | -2,0 mmHg | – |
| CC(C)(C)OC(=O)N1CSC[C@H]1C(=O)N[C@@H](Cc1ccccc1)C(=O)N[C@H]1CO[C@H]2[C@@H]1OC[C@@H]2O[N+](=O)[O-] [Compound 65, 5-[[2-[[(3-t-butoxycarbonyl-4-L-thiazolidinyl)carbonyl]amino]-1-((2S)-2-benzyl)-oxoethyl]amino]-5-deoxy-2-O-nitro-1,4:3,6-dianhydro-L-iditol] | 100 | 20 | 0 | 0 | 30 | 1,0 mmHg | – |
| CSCC[C@H](NC(=O)[C@@H]1CSCN1C(=O)OC(C)(C)C)C(=O)N[C@H]1CO[C@H]2[C@@H]1OC[C@@H]2O[N+](=O)[O-] [Compound 67, 5-[[2-[[(3-t-butoxycarbonyl-4-L-thiazolidinyl)carbonyl]amino]-1-((2S)-2-(2'-thiomethyl)-ethyl)-oxoethyl]amino]-5-deoxy-2-O-nitro-1,4:3,6-dianhydro-L-iditol] | 100 | 9 | > 90 | -15 | > 90 | -1,5 mmHg | – |
| CSCC[C@H](NC(=O)[C@@H]1CSCN1)C(=O)N[C@H]1CO[C@H]2[C@@H]1OC[C@@H]2O[N+](=O)[O-] [Compound 68, 5-[[2-[[(4-n-thiazolidinyl)carbonyl]amino]-1-((2S)-2-(2'-thiomethyl)-ethyl)-oxoethyl]amino]-5-deoxy-2-O-nitro-1,4:3,6-dianhydro-L-iditol monohydrochloride] | 90 | 29 | – | – | – | – | BPs (min), period of action (anesthetised dogs; dogs, 1 mg/kg i.d.): > 180 min; BPs, difference to base value (anesthetised dogs; dogs, 1 mg/kg i.d.): -30 mmHg; LVEDP (min), period of action (anesthetised dogs; dogs, 1 mg/kg i.d.): > 180 min; LVEDP, difference to base value (anesthetised dogs; dogs, 1 mg/kg i.d.): -3,0 mmHg |
| CC(C)(C)OC(=O)N1CSC[C@H]1C(=O)N1CCC[C@H]1C(=O)N[C@H]1CO[C@H]2[C@@H]1OC[C@@H]2O[N+](=O)[O-] [Compound 69, 5-[[[(2S)-N-[(3-t-butoxycarbonyl-4-L-thiazolidinyl)carbonyl]-2-pyrrolidinyl]carbonyl]amino]-5-deoxy-2-O-nitro-1,4:3,6-dianhydro-L-iditol] | 87 | 42 | > 150 | -40 | > 150 | -2,5 mmHg | – |
| O=C(N[C@H]1CO[C@H]2[C@@H]1OC[C@@H]2O[N+](=O)[O-])[C@@H]1CCCN1C(=O)[C@@H]1CSCN1 [Compound 70, 5-[[[(2S)-N-[(4-L-thiazolidinyl)carbonyl]-2-pyrrolidinyl]carbonyl]amino]-5-deoxy-2-O-nitro-1,4:3,6-dianhydro-L-iditol monohydrochloride] | 83 | 35 | > 90 | -30 | 0 | 0,0 mmHg | – |
| O=C(CNC(=O)[C@@H]1CSCN1)N[C@H]1CO[C@H]2[C@@H]1OC[C@H]2O[N+](=O)[O-] [Compound 71, 2-[[2-[[(4-L-thiazolidinyl)carbonyl]]amino]-1-oxoethyl]amino]-2-deoxy-5-O-nitro-1,4:3,6-dianhydro-D-glucitol monohydrochloride] | 66 | 70 | 0 | 0 | > 60 | -5,5 mmHg | – |
